Laboratory results taken from patent publication US20250270213A1, “PI3Ka INHIBITORS” (Synnovation Therapeutics, Inc., priority 2022, published 2025).

System: T47D (PIK3CA H1047R) cells
Test: pS473 AKT assay with 2.5% FBS, T47D cells
Format: cell-based
Conditions: Homo sapiens, pSer473 AKT, DMEM with 2.5% FBS, 2 h treatment, read-out: T47D_IC50
Description: Example B. pS473 AKT Assay Protocol with 2.5% FBS
T47D (PIK3CA H1047R) cells were cultured using 10-cm petri dishes with recommended medium plus 10% fetal bovine serum. One day before the assay, cells were seeded in 96-well plates. After overnight incubation, the medium was changed to DMEM with 2.5% fetal bovine serum (FBS) and the cells were treated with different concentrations of the compounds for 2 h. Cells were then fixed using 4% paraformaldehyde at room temperature for 20 min. Aspirate 4% paraformaldehyde, and wash cells using 1× regular phosphate buffered saline 3 times, 5 min each. Aspirate any residual phosphate buffered saline and block cells using 10% goat serum containing 1% bovine serum albumin and 0.3% Triton X-100 at room temperature for 1 h. Without any additional washing, primary antibodies (rabbit anti-pSer473 AKT) were diluted using blocking buffer and added at a final volume of 50 microliter per well. Keep assay plates with primary antibodies overnight at 4° C. Wash cells using 1× regular phosphate buffered saline 3 times, 5 min each. After the final wash, incubate cells with horseradish peroxidase-conjugated secondary antibodies (goat Anti-rabbit IgG) diluted using the same blocking buffer at room temperature for 1 h. Wash cells thoroughly using 1× regular phosphate buffered saline 3 times, 5 min each. Aspirate any residual phosphate buffered saline. Add Super-Signal ELISA Pico Chemiluminescent Substrate at a final volume of 100 microliter per well. Read plates on i3x Multi-Mode Microplate Reader and calculate IC50 values using GraphPad Prism software.

IC50 [nM] | SMILES
< 1000 | CC(Nc1ccc(Cl)nc1-c1cnn(C)c1)c1cc(C#N)cc2c(=O)n(C)c3c(cnn3C3CCN(C)CC3)c12 (stereo not shown) [Example 198, 9-(1-((6-Chloro-2-(1-methyl-1H-pyrazol-4-yl)pyridin-3-yl)amino)ethyl)-4-methyl-3-(1-methylpiperidin-4-yl)-5-oxo-4,5-dihydro-3H-pyrazolo[3,4-c]isoquinoline-7-carbonitrile]
< 1000 | CCn1cc(-c2nc(Cl)ccc2NC(C)c2cc(C)cc3c(=O)n(C)c4c(cnn4C4CCN(C)CC4)c23)cn1 (stereo not shown) [Compound 160, 9-[1-[[6-chloro-2-(1-ethylpyrazol-4-yl)-3-pyridyl]amino]ethyl]-4,7-dimethyl-3-(1-methyl-4-piperidyl)pyrazolo[3,4-c]isoquinolin-5-one]
< 1000 | Cc1cc(C(C)Nc2ccc(Cl)nc2-c2cnn(C)c2)c2c(c1)c(=O)n(C)c1nn(C3CCN(C(C)C)CC3)cc21 (stereo not shown) [Example 207, 9-(1-((6-chloro-2-(1-methyl-1H-pyrazol-4-yl)pyridin-3-yl)amino)ethyl)-2-(1-isopropylpiperidin-4-yl)-4,7-dimethyl-2,4-dihydro-5H-pyrazolo[3,4-c]isoquinolin-5-one]
< 1000 | [2H]C([2H])([2H])n1c(=O)c2cc(C)cc(C(C)Nc3ccc(Cl)nc3-c3cnn(C)c3)c2c2cnn(C3CCN(C(=O)CO)C3)c21 (stereo not shown) [Compound 154, 9-(1-((6-Chloro-2-(1-methyl-1H-pyrazol-4-yl)pyridin-3-yl)amino)ethyl)-3-(1-(2-hydroxyacetyl)pyrrolidin-3-yl)-7-methyl-4-(methyl-d3)-3,4-dihydro-5H-pyrazolo[3,4-c]isoquinolin-5-one]
< 1000 | COc1ccc2c3c(C(C)Nc4ccccc4C(=O)O)cc(C)cc3c(=O)n(C)c2n1 (stereo not shown) [Compound I-32, 2-[1-(3-Methoxy-5,8-dimethyl-6-oxo-benzo[c][1,8]naphthyridin-10-yl)ethylamino]benzoic acid]
< 1000 | Cc1cc(C(C)Nc2ccc(Cl)nc2-c2cn(C)nc2C)c2c(c1)c(=O)n(C)c1c(C(=O)N(C)C)ncn21 (stereo not shown) [Compound 130, 9-(1-((6-chloro-2-(1,3-dimethyl-1H-pyrazol-4-yl)pyridin-3-yl)amino)ethyl)-N,N,4,7-tetramethyl-5-oxo-4,5-dihydroimidazo[1,5-a]quinazoline-3-carboxamide]
< 1000 | Cc1cc(C(C)Nc2ccccc2C(=O)O)c2c(c1)c(=O)n(C)c1c(-c3ccccn3)ncn21 (stereo not shown) [Compound I-6, 2-((1-(4,7-Dimethyl-5-oxo-3-(pyridin-2-yl)-4,5-dihydroimidazo[1,5-a]quinazolin-9-yl)ethyl)amino)benzoic acid]
< 1000 | Cc1cc(C(C)Nc2ccc(Cl)nc2-c2cnn(C)c2)c2c(c1)c(=O)n(C)c1c2cnn1C1CCN(C[C@H](C)O)CC1 (stereo partly drawn) [Compound 174, 9-[1-[[6-chloro-2-(1-methylpyrazol-4-yl)-3-pyridyl]amino]ethyl]-3-[1-[(2S)-2-hydroxypropyl]-4-piperidyl]-4,7-dimethyl-pyrazolo[3,4-c]isoquinolin-5-one]
< 1000 | Cc1cc(C(C)Nc2ccc(Cl)nc2-c2cnn(C)c2C)c2c(c1)c(=O)n(C)c1c(C(=O)N(C)C)ncn21 (stereo not shown) [Compound 129, 9-(1-((6-chloro-2-(1,5-dimethyl-1H-pyrazol-4-yl)pyridin-3-yl)amino)ethyl)-N,N,4,7-tetramethyl-5-oxo-4,5-dihydroimidazo[1,5-a]quinazoline-3-carboxamide]
< 1000 | Cc1cc(C(C)Nc2ccc(Cl)nc2-c2ccn(C)c(=O)c2)c2c(c1)c(=O)n(C)c1c2cnn1C1CCN(C)CC1 (stereo not shown) [Compound 171, 9-[1-[[6-chloro-2-(1-methyl-2-oxo-4-pyridyl)-3-pyridyl]amino]ethyl]-4,7-dimethyl-3-(1-methyl-4-piperidyl)pyrazolo[3,4-c]isoquinolin-5-one]
< 1000 | Cc1cc(C(C)Nc2ccc(Cl)nc2-c2ncn(C)n2)c2c(c1)c(=O)n(C)c1c2cnn1C1CCN(C)C1 (stereo not shown) [Compound 136, 9-(1-((6-chloro-2-(1-methyl-1H-1,2,4-triazol-3-yl)pyridin-3-yl)amino)ethyl)-4,7-dimethyl-3-(1-methylpyrrolidin-3-yl)-3,4-dihydro-5H-pyrazolo[3,4-c]isoquinolin-5-one]
< 1000 | Cc1cc(C(C)Nc2ccc(Cl)nc2-c2ccncc2F)c2c(c1)c(=O)n(C)c1c2cnn1C1CCN(C)CC1 (stereo not shown) [Compound 168, 9-[1-[[6-chloro-2-(3-fluoro-4-pyridyl)-3-pyridyl]amino]ethyl]-4,7-dimethyl-3-(1-methyl-4-piperidyl)pyrazolo[3,4-c]isoquinolin-5-one]
< 1000 | CNC(=O)c1ccc(-c2nc(Cl)ccc2OC(C)c2cc(C)cc3c(=O)n(C)c4c(cnn4C4CCN(C)CC4)c23)cn1 (stereo not shown) [Example 282, 5-[6-Chloro-3-[1-[4,7-dimethyl-3-(1-methyl-4-piperidyl)-5-oxo-pyrazolo[3,4-c]isoquinolin-9-yl]ethoxy]-2-pyridyl]-N-methyl-pyridine-2-carboxamide]
< 1000 | CCn1c(=O)c2cc(C)cc(C(C)Nc3ccc(Cl)nc3-c3ncn(C)n3)c2c2cnn([C@H]3CCOC3)c21 (stereo partly drawn) [Example 216, 9-(1-((6-chloro-2-(1-methyl-1H-1,2,4-triazol-3-yl)pyridin-3-yl)amino)ethyl)-4-ethyl-7-methyl-3-((S)-tetrahydrofuran-3-yl)-3,4-dihydro-5H-pyrazolo[3,4-c]isoquinolin-5-one]

Continued, compound first:

SMILES | IC50 [nM]
Cc1cc(C(C)Nc2ccc(Cl)nc2-c2cn[nH]c2)c2c(c1)c(=O)n(C)c1c2cnn1C1CN(C)C1 (stereo not shown) [Compound 84, 9-(1-((6-chloro-2-(1H-pyrazol-4-yl)pyridin-3-yl)amino)ethyl)-4,7-dimethyl-3-(1-methylazetidin-3-yl)-3,4-dihydro-5H-pyrazolo[3,4-c]isoquinolin-5-one] | < 1000
CCn1ncc2c3c(C(C)Nc4ccc(Cl)nc4C(=O)NC4CCN(C)CC4)cc(C)cc3c(=O)n(C)c21 (stereo not shown) [Compound 73, 6-Chloro-3-((1-(3-ethyl-4,7-dimethyl-5-oxo-4,5-dihydro-3H-pyrazolo[3,4-c]isoquinolin-9-yl)ethyl)amino)-N-(1-methylpiperidin-4-yl)picolinamide] | < 1000
CCn1ncc2c3c(C(C)Nc4ccc(Cl)nc4C(=O)NOC)cc(C)cc3c(=O)n(C)c21 (stereo not shown) [Compound 75, 6-chloro-3-((1-(3-ethyl-4,7-dimethyl-5-oxo-4,5-dihydro-3H-pyrazolo[3,4-c]isoquinolin-9-yl)ethyl)amino)-N-methoxypicolinamide] | < 1000
CCc1ncn2c3c(C(C)Nc4ccc(Cl)nc4-c4noc(=O)[nH]4)cc(C)cc3c(=O)n(C)c12 (stereo not shown) [Compound 71, 3-(6-Chloro-3-((1-(3-ethyl-4,7-dimethyl-5-oxo-4,5-dihydroimidazo[1,5-a]quinazolin-9-yl)ethyl)amino)pyridin-2-yl)-1,2,4-oxadiazol-5(4H)-one] | < 1000
CCn1ncc2c3c(C(C)Nc4ccc(C)nc4-c4cn[nH]c4)cc(C)cc3c(=O)n(C)c21 (stereo not shown) [Compound 53, 3-ethyl-4,7-dimethyl-9-(1-((6-methyl-2-(1H-pyrazol-4-yl)pyridin-3-yl)amino)ethyl)-3,4-dihydro-5H-pyrazolo[3,4-c]isoquinolin-5-one] | < 1000
CCn1ncc2c3c(C(C)Nc4ccccc4N4CCn5cnnc5C4)cc(C)cc3c(=O)n(C)c21 (stereo not shown) [Compound 58, 9-(1-((2-(5,6-Dihydro-[1,2,4]triazolo[4,3-a]pyrazin-7(8H)-yl)phenyl)amino)ethyl)-3-ethyl-4,7-dimethyl-3,4-dihydro-5H-pyrazolo[3,4-c]isoquinolin-5-one] | < 1000
Cc1cc(C(C)Nc2ccc(Cl)nc2-c2cnn(C)c2)c2c(c1)c(=O)n(C)c1c(C(=O)N(C)C)ncn21 (stereo not shown) [Compound 120, 9-(1-((6-Chloro-2-(1-methyl-1H-pyrazol-4-yl)pyridin-3-yl)amino)ethyl)-N,N,4,7-tetramethyl-5-oxo-4,5-dihydroimidazo[1,5-a]quinazoline-3-carboxamide] | < 1000
CCn1ncc2c3c(C(C)Nc4ccc(Cl)nc4-c4noc(=O)[nH]4)cc(C)cc3c(=O)n(CC(F)F)c21 (stereo not shown) [Compound 60, 3-(6-Chloro-3-((1-(4-(2,2-difluoroethyl)-3-ethyl-7-methyl-5-oxo-4,5-dihydro-3H-pyrazolo[3,4-c]isoquinolin-9-yl)ethyl)amino)pyridin-2-yl)-1,2,4-oxadiazol-5(4H)-one] | < 1000
Cc1cc(C(C)Nc2ccc(Cl)nc2-c2cnn(C)c2)c2c(c1)c(=O)n(C)c1c(C(=O)N3CCC3)ncn21 (stereo not shown) [Compound 121, 3-(azetidine-1-carbonyl)-9-(1-((6-chloro-2-(1-methyl-1H-pyrazol-4-yl)pyridin-3-yl)amino)ethyl)-4,7-dimethylimidazo[1,5-a]quinazolin-5(4H)-one] | < 1000
CNC(=O)c1ccc(-c2nc(Cl)ccc2NC(C)c2cc(C)cc3c(=O)n(C)c4c(cnn4C4CN(C(C)=O)C4)c23)cn1 (stereo not shown) [Compound 101, 3-((1-(3-(1-acetylazetidin-3-yl)-4,7-dimethyl-5-oxo-4,5-dihydro-3H-pyrazolo[3,4-c]isoquinolin-9-yl)ethyl)amino)-6-chloro-N-methyl-[2,3′-bipyridine]-6′-carboxamide] | < 1000
CNC(=O)c1ccc(-c2cc(Cl)ccc2NC(C)c2cc(C)cc3c(=O)n(C)c4c(cnn4C4CN(C)C4)c23)cn1 (stereo not shown) [Compound 86, 5-(5-chloro-2-((1-(4,7-dimethyl-3-(1-methylazetidin-3-yl)-5-oxo-4,5-dihydro-3H-pyrazolo[3,4-c]isoquinolin-9-yl)ethyl)amino)phenyl)-N-methylpicolinamide] | < 1000
